In article PMC8232238 (Cells, 2021):
Like-named read-outs stand apart in the source and are kept apart here.

Assays:
HDAC11 = target: T1, HDAC11 (Homo sapiens, UniProt Q96DB2); settings: previously reported 4-amino analogues; cited from earlier work
T1 construct: purchased Reaction Biology corporation (contract assay)
T1 sequence (Q96DB2 1-347): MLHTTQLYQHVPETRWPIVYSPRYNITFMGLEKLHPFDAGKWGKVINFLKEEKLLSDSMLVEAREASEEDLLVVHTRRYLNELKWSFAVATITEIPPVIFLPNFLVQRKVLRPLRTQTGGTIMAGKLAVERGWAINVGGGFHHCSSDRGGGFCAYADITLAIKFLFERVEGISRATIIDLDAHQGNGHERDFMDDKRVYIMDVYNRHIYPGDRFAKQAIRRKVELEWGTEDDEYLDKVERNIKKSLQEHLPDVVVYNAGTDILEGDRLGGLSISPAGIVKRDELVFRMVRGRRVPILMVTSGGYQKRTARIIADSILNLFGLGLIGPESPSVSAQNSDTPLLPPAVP

HDAC8 = target: T2, HDAC8 (Homo sapiens, UniProt Q9BY41); settings: previously reported 4-amino analogues; cited from earlier work
T2 construct: purchased Reaction Biology corporation (contract assay)
T2 sequence (Q9BY41 1-377): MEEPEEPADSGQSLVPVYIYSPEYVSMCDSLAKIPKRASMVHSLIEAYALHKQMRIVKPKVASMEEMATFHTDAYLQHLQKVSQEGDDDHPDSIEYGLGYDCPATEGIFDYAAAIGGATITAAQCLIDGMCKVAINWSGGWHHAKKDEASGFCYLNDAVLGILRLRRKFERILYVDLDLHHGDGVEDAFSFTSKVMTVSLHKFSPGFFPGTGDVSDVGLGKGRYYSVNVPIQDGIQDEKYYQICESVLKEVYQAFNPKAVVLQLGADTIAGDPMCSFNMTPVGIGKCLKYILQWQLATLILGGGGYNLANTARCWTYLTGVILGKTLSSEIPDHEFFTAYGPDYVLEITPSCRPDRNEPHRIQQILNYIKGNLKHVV

HDAC3 = target: T3, HDAC3 (Homo sapiens, UniProt O15379); settings: previously reported 4-amino analogues; cited from earlier work
T3 construct: purchased Reaction Biology corporation (contract assay)
T3 sequence (O15379 whole entry): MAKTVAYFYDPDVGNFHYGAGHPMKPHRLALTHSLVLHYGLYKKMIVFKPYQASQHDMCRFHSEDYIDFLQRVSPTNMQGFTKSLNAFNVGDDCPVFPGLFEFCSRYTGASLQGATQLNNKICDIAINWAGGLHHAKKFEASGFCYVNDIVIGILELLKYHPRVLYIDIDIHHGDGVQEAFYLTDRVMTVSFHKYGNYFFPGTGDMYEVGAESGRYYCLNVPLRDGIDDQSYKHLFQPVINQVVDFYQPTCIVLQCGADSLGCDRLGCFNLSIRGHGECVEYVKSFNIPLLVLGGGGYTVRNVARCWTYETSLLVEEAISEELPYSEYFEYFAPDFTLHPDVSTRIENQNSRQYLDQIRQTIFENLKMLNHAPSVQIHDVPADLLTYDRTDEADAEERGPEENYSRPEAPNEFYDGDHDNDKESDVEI
T3 sequence (Q9Y618 395-489 partner limits assumed): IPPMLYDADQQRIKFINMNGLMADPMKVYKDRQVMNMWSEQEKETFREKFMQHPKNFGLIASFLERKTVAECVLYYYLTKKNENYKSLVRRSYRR

HDAC1 [1] = target: T4, HDAC1 (Homo sapiens, UniProt Q13547); settings: previously reported 4-amino analogues; cited from earlier work
T4 construct: purchased Reaction Biology corporation (contract assay)
T4 sequence (Q13547 whole entry): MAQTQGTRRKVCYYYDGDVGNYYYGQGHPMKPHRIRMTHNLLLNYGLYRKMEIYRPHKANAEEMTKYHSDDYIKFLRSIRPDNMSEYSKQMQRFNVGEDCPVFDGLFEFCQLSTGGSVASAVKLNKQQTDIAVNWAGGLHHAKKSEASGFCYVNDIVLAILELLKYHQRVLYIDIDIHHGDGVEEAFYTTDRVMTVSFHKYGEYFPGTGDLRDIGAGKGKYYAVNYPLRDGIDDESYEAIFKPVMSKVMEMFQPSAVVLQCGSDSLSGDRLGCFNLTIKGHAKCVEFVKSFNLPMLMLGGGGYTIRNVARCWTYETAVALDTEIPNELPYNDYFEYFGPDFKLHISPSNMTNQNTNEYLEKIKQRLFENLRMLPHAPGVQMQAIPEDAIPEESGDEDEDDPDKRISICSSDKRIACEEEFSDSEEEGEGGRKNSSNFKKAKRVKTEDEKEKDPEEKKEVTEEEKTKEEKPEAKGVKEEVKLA

[2] = test system: acetylated tubulin in A549 cells; test: Tubulin acetylation in A549 cells, immunostaining with high content imaging; type: cell-based, human; settings: 24 h; for Concentration from which tubulin acetylation was significantly increased: compared to untreated cells
Protocol: (§1) To confirm the observed activities of the selected test compounds against HDAC6, the acetylation status of tubulin in the human lung cancer cell line A549 was investigated by immunostaining combined with automated high content image analysis (see supplementary material for full details). […] The apparent drop in histone acetylation by both compounds above 10 μM is indicative of a potential cytotoxicity at higher concentrations (data not shown).
(§2) Figure 5 Cell-based assessment of HDAC activity and selectivity. Dose and time-dependency of tubulin and histone acetylation by test compounds. A549 cells were treated with (A,B) different concentrations (0–50 µM) of CF011, KNH019 and tubastatin for 24 h or with (C,D) 1 µM over different time intervals before (A,C) tubulin acetylation or (B,D) histone acetylation were automatically quantified using high content imaging. Data represent the average of four independent experiments with four replicate wells/experiments. The statistical significances of effects compared to the untreated control were analysed using Brown–Forsythe and Welch one-way ANOVA analyses using Graph Pad Prism. The significance was set as * 0.05 > p ≥ 0.01, ** 0.01 > p ≥ 0.002. Error bars represent the Standard Error of Mean (SEM). (E) Representative fluorescence images show tubulin acetylation (yellow), histone acetylation (red) and nuclear counterstain (DAPI, blue) after 24 h of exposure to test compounds. Secondary antibodies were detected using excitation/emission filters for CY3 (excitation: 542/27 nm, emission: 597/45 nm), CY5 (excitation: 632/22 nm, emission: 684/25 nm) and DAPI (excitation: 390/18 nm, emission: 435/48 nm), respectively. […]
(§3) S2.2 Cell Culture, Treatment and Immunostaining:
(§4) A549 cells (ATCC® CCL-185™, In Vitro Technologies Pty. Ltd., Victoria, Australia) were cultured in low glucose Dulbecco’s Modified Eagle Media (DMEM, 1 g/L glucose, 0.584 g/L L-glutamine, 3.7 g/L sodium bicarbonate, 10 % fetal bovine serum) under standard conditions (> 90 % humidity, 37 °C temperature, 5 % CO 2). For experiments, 5,000 cells/ well were seeded in 100 µl serum free DMEM in 384 well plates (µCLEAR®, Greiner) and left to adhere for 24 hours before the treatment. Cells were treated with 100 µl of test compound -containing media for up to 24 hours before cells were fixed with 4 % paraformaldehyde (PFA) solution in PBS (10 minutes at room temperature (RT)) and permeabi lized with 50 µl of 0.5 % Triton X -100 in PBS. Subsequently, cells were blocked in PBST (5% fetal bovine serum, 5% bovine serum albumin, 5% goat serum, 0.1% Tween 20 in PBS) before stained with anti - acetylated tubulin (T7451, Sigma Aldrich; 1:1,000) and an ti-acetylated histone antibody (ab47915, Abcam; 1:1,000) overnight at 4 °C. Subsequently, cells were exposed to secondary antibodies (goat anti-mouse Alexa fluor 594 (Invitrogen; 1:10,000) and goat anti -rabbit Alexa fluor 647 (Invitrogen; 1:10,000) in PBST ) and DAPI solution (Invitrogen; 1:10,000 in PBST) before images were acquired.
(§5) Fluorescence images were acquired (10x magnification, 2 -D format) using the InCell 2200 high content imaging system (V7.3, GE Healthcare life sciences) wi th CY3 (excitation: 542/27 nm, emission: 597/45 nm), CY5 (excitation: 632/22 nm, emission: 684/25 nm) and DAPI (excitation: 390/18 nm, emission:
435/48 nm) filters. Two images/well at predefined positions were automatically acquired with 4 replicate wells for each treatment condition/ experiment. At least 3 independent experiments were conducted for each condition. Acquired images were automatically processed using InCarta software (v1.6, GE Healthcare life sciences). All images were manually checked for ar tefacts. Images with less than 30 cells were excluded from the analysis. Excel and GraphPad Prism was used for statistical analysis and graphical representation. Data was expressed as % Relative Fluorescence Units (RFU) […]

[3] = test system: acetylated histone in A549 cells; test: Histone acetylation in A549 cells, immunostaining with high content imaging; type: cell-based, human; settings: 24 h; for Concentration from which histone acetylation was significantly increased: compared to untreated cells
Protocol: as §1, §2, §3, §4, §5
435/48 nm) filters. […] Data was expressed as % Relative Fluorescence Units (RFU) […]

HDAC6 = target: T5, HDAC6 (Homo sapiens, UniProt Q9UBN7); design: method as in PMID 30168823; settings: Figure 2; cited from earlier work
T5 construct: purchased Reaction Biology corporation (contract assay)
T5 sequence (Q9UBN7 1-1215): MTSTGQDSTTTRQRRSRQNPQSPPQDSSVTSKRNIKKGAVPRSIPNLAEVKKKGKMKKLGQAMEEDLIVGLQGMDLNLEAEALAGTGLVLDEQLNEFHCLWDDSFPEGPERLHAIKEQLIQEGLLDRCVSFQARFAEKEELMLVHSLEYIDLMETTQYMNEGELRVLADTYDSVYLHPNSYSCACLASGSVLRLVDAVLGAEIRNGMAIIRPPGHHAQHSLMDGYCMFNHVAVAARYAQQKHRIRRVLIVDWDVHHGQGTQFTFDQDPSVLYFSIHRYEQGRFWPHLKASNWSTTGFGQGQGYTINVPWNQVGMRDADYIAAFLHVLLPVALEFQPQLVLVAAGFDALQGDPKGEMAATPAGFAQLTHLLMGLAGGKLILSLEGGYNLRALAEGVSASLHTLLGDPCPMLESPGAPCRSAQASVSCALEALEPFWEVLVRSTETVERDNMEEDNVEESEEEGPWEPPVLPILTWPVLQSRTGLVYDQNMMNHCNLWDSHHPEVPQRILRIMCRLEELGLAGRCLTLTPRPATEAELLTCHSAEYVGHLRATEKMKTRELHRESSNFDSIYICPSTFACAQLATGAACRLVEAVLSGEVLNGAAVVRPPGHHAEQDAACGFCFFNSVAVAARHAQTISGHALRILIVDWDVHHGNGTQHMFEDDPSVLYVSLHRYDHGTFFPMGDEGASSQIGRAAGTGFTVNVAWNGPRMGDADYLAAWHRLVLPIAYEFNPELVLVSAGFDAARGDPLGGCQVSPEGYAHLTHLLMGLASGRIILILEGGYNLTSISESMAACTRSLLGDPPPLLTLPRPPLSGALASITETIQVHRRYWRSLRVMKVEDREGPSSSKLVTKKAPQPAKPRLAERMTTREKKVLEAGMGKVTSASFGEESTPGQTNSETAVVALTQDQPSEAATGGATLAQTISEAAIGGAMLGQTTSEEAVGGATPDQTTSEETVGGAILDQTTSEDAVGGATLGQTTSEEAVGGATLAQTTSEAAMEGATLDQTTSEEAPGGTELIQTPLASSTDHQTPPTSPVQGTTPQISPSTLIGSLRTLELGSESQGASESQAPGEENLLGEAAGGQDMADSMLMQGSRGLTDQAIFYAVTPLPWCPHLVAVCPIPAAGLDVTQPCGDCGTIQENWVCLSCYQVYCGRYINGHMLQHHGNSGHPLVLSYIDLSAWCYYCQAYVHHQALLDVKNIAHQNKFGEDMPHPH

HDAC1 [4] = target: T4, HDAC1; design: method as in PMID 30168823; settings: Figure 2; cited from earlier work

| SMILES | Selectivity factor (SF) HDAC11 against HDAC6 (HDAC11) | Selectivity factor (SF) HDAC8 against HDAC6 (HDAC8) | IC50 (HDAC3) [nM] | Selectivity factor (SF) HDAC3 against HDAC6 (HDAC3) | Selectivity factor (SF) = HDAC1 IC50/HDAC6 IC50 (HDAC1 [1]) | Increase of tubulin acetylation compared to untreated cells (up to) ([2]; 0-50 µM, dose-dependent) [fold] | Tubulin acetylation in representative immunostaining images ([2]; 10 µM) | Concentration from which tubulin acetylation was significantly increased [2] | Histone acetylation in representative immunostaining images ([3]; 10 µM) | Concentration from which histone acetylation was significantly increased [3] | IC50 (HDAC6) [nM] | IC50 (HDAC1 [4]) [nM] | Selectivity factor (SF) = HDAC1 IC50/HDAC6 IC50 (HDAC1 [4]) |
| --- | --- | --- | --- | --- | --- | --- | --- | --- | --- | --- | --- | --- | --- |
| CCCNc1ccc2c3c(cccc13)C(=O)N(CCCCCC(=O)NO)C2=O [CF010] | 16 | 317 | 110 ± 4 | 23 | 123 | – | – | – | – | – | – | – | – |
| O=C(CCCCCN1C(=O)c2cccc3c(NCc4ccccc4)ccc(c23)C1=O)NO [CF011] | 43 | 703 | 360 ± 0.7 | 103 | 566 | ~1.5 | strongly induce | 10^−9 mM | strongly induce | 10^−6 mM | – | – | – |
| COc1cc2c3c(cccc3c1)C(=O)N(Cc1ccc(C(=O)NO)cc1)C2=O [Compound 3] | – | – | – | – | – | – | – | – | – | – | 0.08 | 33 | 412 |
| CN1CCc2c(c3ccccc3n2Cc2ccc(C(=O)NO)cc2)C1 [tubastatin] | – | – | – | – | – | – | – | 10^−3 mM | – | 10^−3 mM | – | – | – |
